According to the supplement of paper PMC9938120:

Assays:
Experiment in all cases: drug sensitivity score (DSS3, normalised partial AUC of % inhibition dose-response) (DSS (score)); higher = more sensitive (stronger inhibition of viability); extreme values may be limits of the assay
FMOC02_1 = patient-derived low-grade serous ovarian cancer cells; details: 72 h; library: FO5A; assay format: 2D, 384-well, CellTiter-Glo
Procedure, shortened: (§1)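 Patient-derived ovarian cancer cells (early passage, under 10) were dispensed onto 384-well flat clear-bottom plates pre-plated with compounds at five concentrations covering a 10,000-fold range. Plates were incubated 72 h at 37 °C, 5% CO2, and viability was read with CellTiter-Glo. Data were processed in Breeze. The drug sensitivity score (DSS3) is a partial area under the percent-inhibition dose-response curve, divided by the log of the upper asymptote; higher means more sensitive.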

FMOC02_2 = patient-derived low-grade serous ovarian cancer cells; details: 72 h; library: FO5A; assay format: 2D, 384-well, CellTiter-Glo
Procedure, shortened: as §1

FMOC02_3 = patient-derived low-grade serous ovarian cancer cells; details: 72 h; library: FO5A; assay format: 2D, 384-well, CellTiter-Glo
Procedure, shortened: as §1

FMOC03 = patient-derived mucinous ovarian cancer cells; details: 72 h; library: FO5A; assay format: 2D, 384-well, CellTiter-Glo
Procedure, shortened: as §1

FMOC04 = patient-derived high-grade serous ovarian cancer cells; details: 72 h; library: FO5A; assay format: 2D, 384-well, CellTiter-Glo
Procedure, shortened: as §1

FMOC06 = patient-derived mucinous ovarian cancer cells; details: 72 h; library: FO5A; assay format: 2D, 384-well, CellTiter-Glo
Procedure, shortened: as §1

FMOC09 = patient-derived high-grade serous ovarian cancer cells; details: 72 h; library: FO5A; assay format: 2D, 384-well, CellTiter-Glo
Procedure, shortened: as §1

FMOC11 = patient-derived high-grade serous ovarian cancer cells; details: 72 h; library: FO5A; assay format: 2D, 384-well, CellTiter-Glo
Procedure, shortened: as §1

FMOC14 = patient-derived high-grade serous ovarian cancer cells; details: 72 h; library: FO5A; assay format: 2D, 384-well, CellTiter-Glo
Procedure, shortened: as §1

FMOC17 = patient-derived low-grade serous ovarian cancer cells; details: 72 h; library: FO5A; assay format: 2D, 384-well, CellTiter-Glo
Procedure, shortened: as §1

FMOC22 = patient-derived mucinous ovarian cancer cells; details: 72 h; library: FO5A; assay format: 2D, 384-well, CellTiter-Glo
Procedure, shortened: as §1

FMOC24 = patient-derived high-grade serous ovarian cancer cells; details: 72 h; library: FO5A; assay format: 2D, 384-well, CellTiter-Glo
Procedure, shortened: as §1

FMOC25_1 = patient-derived low-grade serous ovarian cancer cells; details: 72 h; library: FO4B; assay format: 2D, 384-well, CellTiter-Glo
Procedure, shortened: as §1

FMOC25_2 = patient-derived low-grade serous ovarian cancer cells; details: 72 h; library: FO5A; assay format: 2D, 384-well, CellTiter-Glo
Procedure, shortened: as §1

FMOC27 = patient-derived low-grade serous ovarian cancer cells; details: 72 h; library: FO5A; assay format: 2D, 384-well, CellTiter-Glo
Procedure, shortened: as §1

FMOC28 = patient-derived low-grade serous ovarian cancer cells; details: 72 h; library: FO5A; assay format: 2D, 384-well, CellTiter-Glo
Procedure, shortened: as §1

| SMILES | drug sensitivity score (FMOC02_1) | drug sensitivity score (FMOC02_2) | drug sensitivity score (FMOC02_3) | drug sensitivity score (FMOC03) | drug sensitivity score (FMOC04) | drug sensitivity score (FMOC06) | drug sensitivity score (FMOC09) | drug sensitivity score (FMOC11) | drug sensitivity score (FMOC14) | drug sensitivity score (FMOC17) | drug sensitivity score (FMOC22) | drug sensitivity score (FMOC24) | drug sensitivity score (FMOC25_1) | drug sensitivity score (FMOC25_2) | drug sensitivity score (FMOC27) | drug sensitivity score (FMOC28) |
| --- | --- | --- | --- | --- | --- | --- | --- | --- | --- | --- | --- | --- | --- | --- | --- | --- |
| COc1cccc2c1c(O)c(C(=O)N(C)c1ccc(C(F)(F)F)cc1)c(=O)n2C [Tasquinimod] | 0 | 0 | 1 | 0 | 0 | 0 | 0 | 0 | 0 | 0 | 0 | 2.3 | 3.9 | 2.5 | 0.4 | 0 |
| CCN(c1cc(-c2ccc(CN3CCOCC3)cc2)cc(C(=O)NCc2c(C)cc(C)[nH]c2=O)c1C)C1CCOCC1 [Tazemetostat] | 0 | 0 | 0.1 | 0 | 0 | 0.5 | 0 | 0 | 0 | 0 | 0 | 0 | 0 | 0 | 0 | 0 |
| CNC(=O)c1cc(COc2nnc(Nc3ccc(Cl)cc3)c3ccoc23)ccn1 [Telatinib] | 1.2 | 1.7 | 0 | 0 | 0.05 | 0 | 0 | 0 | 0 | 2.5 | 0 | 0.4 | 0 | 0 | 0 | 0 |
| Cn1nnc2c(C(N)=O)ncn2c1=O [Temozolomide] | 0 | 0 | 0 | 0 | 0 | 0 | 0 | 0 | 0 | 0.2 | 0 | 0 | 0 | 0 | 0 | 0.8 |
| COc1cc([C@@H]2c3cc4c(cc3[C@@H](O[C@@H]3O[C@@H]5CO[C@@H](c6cccs6)O[C@H]5[C@H](O)[C@H]3O)[C@H]3COC(=O)[C@H]23)OCO4)cc(OC)c1O [Teniposide] | 0 | 0 | 0 | 0.5 | 0 | 0 | 0 | 0 | 0 | 0 | 2.5 | 2.75 | 6.4 | 0 | 0 | 0 |
| O=C1CCC(N2C(=O)c3ccccc3C2=O)C(=O)N1 (centres undefined) [Thalidomide] | 0 | 0 | 0 | 0 | 0 | 0 | 0 | 0 | 0 | 0 | 0 | 0 | 0 | 0 | 0.1 | 0 |
| O=c1sn(-c2cccc3ccccc23)c(=O)n1Cc1ccccc1 [Tideglusib] | 0 | 1 | 0 | 0 | 0 | 0 | 0 | 0 | 0 | 0 | 0 | 0 | 0.3 | 0 | 0 | 0 |
| Cn1cncc1[C@@](N)(c1ccc(Cl)cc1)c1ccc2c(c1)c(-c1cccc(Cl)c1)cc(=O)n2C [Tipifarnib] | 6.9 | 6.2 | 9.5 | 6 | 4.45 | 8.8 | 2.2 | 5.3 | 3.5 | 1.8 | 5.3 | 4.1 | 9.7 | 9.8 | 3.3 | 5.8 |
| O=C1NC(=O)[C@@H](c2cn3c4c(cccc24)CCC3)[C@@H]1c1c[nH]c2ccccc12 [Tivantinib] | 4.7 | 3.7 | 5 | 3.1 | 5.1 | 2.7 | 4.3 | 2.8 | 0 | 4.9 | 2.5 | 0.65 | 4.2 | 2.1 | 2.5 | 3.3 |
| COc1cc2nccc(Oc3ccc(NC(=O)Nc4cc(C)on4)c(Cl)c3)c2cc1OC [Tivozanib] | 5 | 3 | 3.3 | 2.2 | 0.3 | 2.3 | 0.4 | 1.9 | 0.5 | 2.8 | 1.2 | 0.9 | 1.9 | 3.2 | 1.5 | 0.5 |
| C[C@@H]1CCN(C(=O)CC#N)C[C@@H]1N(C)c1ncnc2[nH]ccc12 [Tofacitinib] | 0 | 0.7 | 0.1 | 0 | 0 | 0.7 | 0 | 0 | 0 | 0 | 0 | 0.5 | 0 | 0.3 | 0 | 0.7 |
| CN(C)CCOc1ccc(/C(=C(/CCCl)c2ccccc2)c2ccccc2)cc1 [Toremifene] | 6 | 5.3 | 7.1 | 5.3 | 4 | 7.4 | 3.8 | 4.3 | 5.2 | 3.3 | 5.3 | 7 | 2.2 | 2.2 | 1.9 | 2.4 |
| CC1=C(/C=C/C(C)=C/C=C/C(C)=C/C(=O)O)C(C)(C)CCC1 [Tretinoin] | 0 | 0 | 5.2 | 0 | 0 | 0.1 | 0 | 2 | 0 | 0 | 0 | 0 | 0 | 0.2 | 0 | 0 |
| NC(=S)N/N=C/c1ncccc1N [Triapine] | 4.2 | 3.5 | 1.7 | 2.4 | 0 | 1.8 | 0.9 | 1.7 | 0 | 2.2 | 2.4 | 1.15 | 3.2 | 6 | 2.3 | 5.1 |
| O=C(CCCCCCC(=O)Nc1ccc([C@H]2O[C@@H](CSc3nc(-c4ccccc4)c(-c4ccccc4)o3)C[C@@H](c3ccc(CO)cc3)O2)cc1)NO [Tubacin] | 0 | 0.3 | 0.4 | 4.6 | 0 | 4.1 | 0 | 4.2 | 2.9 | 0 | 5.4 | 0.25 | 0 | 0 | 0.4 | 0.4 |
| CN1CCc2c(c3ccccc3n2Cc2ccc(C(=O)NO)cc2)C1 [Tubastatin A] | 2.9 | 1.4 | 3.4 | 0.5 | 1.4 | 0 | 0.5 | 1.7 | 1.3 | 0 | 0.8 | 0.85 | 0 | 1.3 | 0 | 2.8 |
| COC(=O)c1ccc2c(c1)[nH]c1ncnc(NCCCN3CCCCC3)c12 [UM729] | 4.7 | 3.5 | 2.2 | 0 | 0.1 | 0 | 0 | 1.1 | 0.1 | 0.2 | 0 | 0.6 | 0 | 1.8 | 0.5 | 3.1 |
| COc1cc2c(NC3CCN(C(C)C)CC3)nc(C3CCCCC3)nc2cc1OCCCN1CCCC1 [UNC0638] | 5.5 | 0.5 | 5.4 | 0 | 4.3 | 1.7 | 1.9 | 3.5 | 3.1 | 4.7 | 2 | 7.6 | 0.2 | 6.5 | 2.1 | 0 |
| COc1cc2c(NC3CCN(C(C)C)CC3)nc(N3CCC(F)(F)CC3)nc2cc1OCCCN1CCCC1 [UNC0642] | 4 | 1.1 | 2.3 | 0 | 1.2 | 0.2 | 0.2 | 2.3 | 0.1 | 2.1 | 0.1 | 4.3 | 0 | 0.7 | 0 | 0 |
| O=C(c1ccc(C(=O)N2CCC(N3CCCC3)CC2)c(Nc2ccccc2)c1)N1CCC(N2CCCC2)CC1 [UNC1215] | 0 | 0.3 | 0 | 0 | 0 | 0 | 0 | 0 | 0 | 0 | 0 | 0 | 0 | 0 | 0 | 0 |
| CCCCNc1ncc(C(=O)NCc2ccc(-n3ccnc3)cc2)c(NC2CCC(O)CC2)n1 (centres undefined) [UNC2881] | 1.4 | 2.2 | 2.5 | 0.2 | 0 | 0 | 0 | 0 | 0 | 1.3 | 0.4 | 0.4 | 0 | 1.8 | 0 | 1.5 |
| NC(=O)c1cccc(-c2cccc(OC(=O)NC3CCCCC3)c2)c1 [URB597] | 0 | 0 | 0.2 | 0 | 0 | 0 | 0 | 0 | 0 | 0 | 0 | 0 | 0 | 0 | 0 | 0 |
| CS(=O)(=O)c1ccc(-c2cnc(N)c(C(=O)Nc3ccccc3)n2)cc1 [VE-821] | 3.3 | 0.8 | 0.2 | 0 | 0 | 0 | 0 | 0 | 1.9 | 0 | 0 | 3.65 | 0.6 | 2.2 | 1.3 | 0 |
| O=C(O)CC1CC(c2ccccc2)=NO1 (centres undefined) [VGX-1027] | 0 | 0 | 0 | 0 | 0 | 0 | 0 | 0 | 0 | 0 | 0 | 0 | 0 | 0 | 0 | 0 |
